One assay deals with T1, Trypsin (Bos taurus, UniProt P00760).
T1 sequence (P00760 24-246): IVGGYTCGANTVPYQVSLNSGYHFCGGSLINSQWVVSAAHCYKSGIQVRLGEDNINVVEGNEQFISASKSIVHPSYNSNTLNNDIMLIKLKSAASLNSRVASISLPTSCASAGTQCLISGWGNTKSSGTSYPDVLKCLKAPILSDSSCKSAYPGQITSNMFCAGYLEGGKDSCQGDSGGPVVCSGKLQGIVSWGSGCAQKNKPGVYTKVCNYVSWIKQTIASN
The experiment in a line: Anti-trypsin activity (hydrolysis of TAME). It counts as biochemical. The following applies: for inhibition at 10 µM: at 1×10^-5 M, read-out: Trypsin percentage inhibition; for IC50: molar concentration inhibiting 50% of TAME hydrolysis, read-out: Trypsin ID50. The protocol: (§1) The anti-trypsin, anti-plasmin, anti-kallikrein and anti-thrombin activities were determined according to the method of Muramatsu et al. [M. Muramatsu, T. Onishi, S. Makino, Y. Hayashi and S. Fujii, J. of Biochem., 58, 214 (1965)]. […] The compound No. corresponds to the compound number shown in Examples.

For another assay, the system named is Kallikrein. Put plainly: Anti-kallikrein activity (hydrolysis of TAME). To be noted: molar concentration inhibiting 50% of TAME hydrolysis; read-out: Kallikrein ID50. It counts as biochemical. The protocol: (§2) The anti-trypsin, anti-plasmin, anti-kallikrein and anti-thrombin activities were determined according to the method of Muramatsu et al. [M. Muramatsu, T. Onishi, S. Makino, Y. Hayashi and S. Fujii, J. of Biochem., 58, 214 (1965)]. The data summarized in Table 1 are expressed in terms of molar concentration (ID50) of the test compound which inhibits 50% of the activity of each enzyme to hydrolyze TAME (tosylalginine methyl ester). The compound No. corresponds to the compound number shown in Examples.

Another assay has as its target T2, C1r (Homo sapiens, UniProt P00736).
T2 sequence (P00736 464-705 limits assumed): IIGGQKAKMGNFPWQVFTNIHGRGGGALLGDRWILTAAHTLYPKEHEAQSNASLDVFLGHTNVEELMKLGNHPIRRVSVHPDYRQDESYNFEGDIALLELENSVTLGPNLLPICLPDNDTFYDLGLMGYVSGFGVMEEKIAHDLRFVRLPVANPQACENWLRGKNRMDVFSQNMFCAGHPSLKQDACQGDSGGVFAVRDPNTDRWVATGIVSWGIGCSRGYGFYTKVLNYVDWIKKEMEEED
T2 sequence (P00736 18-463 partner limits assumed): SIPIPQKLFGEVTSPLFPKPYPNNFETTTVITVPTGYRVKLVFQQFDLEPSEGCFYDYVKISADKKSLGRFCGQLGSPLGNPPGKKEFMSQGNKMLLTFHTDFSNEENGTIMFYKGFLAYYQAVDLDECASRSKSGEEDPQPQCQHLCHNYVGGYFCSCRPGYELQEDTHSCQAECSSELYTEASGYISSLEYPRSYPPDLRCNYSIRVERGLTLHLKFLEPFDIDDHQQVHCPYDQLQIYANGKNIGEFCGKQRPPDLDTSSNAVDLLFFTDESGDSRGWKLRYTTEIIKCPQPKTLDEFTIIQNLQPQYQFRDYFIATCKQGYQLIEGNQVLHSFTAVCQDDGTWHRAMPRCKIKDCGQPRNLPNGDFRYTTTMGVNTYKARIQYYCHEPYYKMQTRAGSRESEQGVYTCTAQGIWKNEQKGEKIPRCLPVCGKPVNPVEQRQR
The experiment in a line: Anti-C1 esterase (C1r) activity (hydrolysis of AAME). It counts as biochemical. To be noted: AAME hydrolysis; read-out: Anti-C1 activity, C1r ID50. The procedure:
The anti-Cl esterase ([…]) activity was determined according to the method of Okamura et al. [K. Okamura, M. Muramatsu and S. Fujii, Biochem. Biophys.

The target of the next assay is T3, C1s (Homo sapiens, UniProt P09871).
T3 sequence (P09871 438-688 limits assumed): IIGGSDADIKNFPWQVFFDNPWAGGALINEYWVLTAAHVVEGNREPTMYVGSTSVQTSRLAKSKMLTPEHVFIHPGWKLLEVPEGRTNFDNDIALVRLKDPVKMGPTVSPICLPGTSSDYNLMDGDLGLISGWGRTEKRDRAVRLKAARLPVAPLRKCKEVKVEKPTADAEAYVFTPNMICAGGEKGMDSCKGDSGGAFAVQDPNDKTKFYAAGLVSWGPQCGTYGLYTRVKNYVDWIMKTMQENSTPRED
T3 sequence (P09871 16-437 partner limits assumed): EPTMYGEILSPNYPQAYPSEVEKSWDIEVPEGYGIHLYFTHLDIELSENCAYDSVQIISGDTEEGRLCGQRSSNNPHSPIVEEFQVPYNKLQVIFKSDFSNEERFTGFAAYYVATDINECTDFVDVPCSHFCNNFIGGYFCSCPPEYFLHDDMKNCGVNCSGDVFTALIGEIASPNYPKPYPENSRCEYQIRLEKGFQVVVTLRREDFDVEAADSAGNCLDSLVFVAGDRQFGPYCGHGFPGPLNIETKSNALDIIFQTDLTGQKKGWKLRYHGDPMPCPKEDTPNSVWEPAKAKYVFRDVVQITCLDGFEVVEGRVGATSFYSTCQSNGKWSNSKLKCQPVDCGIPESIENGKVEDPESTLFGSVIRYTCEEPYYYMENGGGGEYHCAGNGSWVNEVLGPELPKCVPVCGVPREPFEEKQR
Put plainly: biochemical. To be noted: ATEE hydrolysis; read-out: Anti-C1 activity, C1s ID50. The protocol:
The anti-Cl esterase (Clr, Cls) activity was determined according to the method of Okamura et al. [K. Okamura, M. Muramatsu and S. Fujii, Biochem. Biophys. […] The figures in Table 2 have the following meanings:
Cls: Molar concentration of the test compound which inhibits 50% of the ability of Cls to hydrolyse ATEE (acetyltyrosin ethyl ester).

For the next assay, the target named is Thrombin (Homo sapiens, UniProt P00734). Put plainly: biochemical. The following applies: for IC50: molar concentration inhibiting 50% of TAME hydrolysis, read-out: Thrombin ID50; for inhibition at 10 µM: at 1×10^-5 M, read-out: Thrombin percentage inhibition. The protocol:
as §2

The next assay concerns the target Plasmin (Homo sapiens, UniProt P00747). The experiment in a line: Anti-plasmin activity (hydrolysis of TAME). The format is biochemical. The following applies: molar concentration inhibiting 50% of TAME hydrolysis; read-out: Plasmin ID50. The protocol: as §1
Assay [1] has as its system complement mediated hemolysis. The experiment in a line: Inhibition of complement mediated hemolysis. It counts as cell-based.
Protocol: The principle of this method is based on the fact that hemolysis is caused by the activation of complement, when the latter is added to a complex (immune complex) of erythrocytes and the antibody thereof. The degree of hemolysis varies in proportion to the amount of complement added. Therefore, when a known amount of complement admixed with a C1 esterase inhibitor is used, the hemolysis must be suppressed in proportion to the inhibitory activity.

16 compounds from patent publication US4532255A, “Amidine compounds and anticomplement agent comprising same” (Torii & Co., Ltd., priority 1980, dated 1985) can be followed below.

SMILES strings stand for the structures.

Chain of Plasmin (P00747 581-810 limits assumed, species assumed): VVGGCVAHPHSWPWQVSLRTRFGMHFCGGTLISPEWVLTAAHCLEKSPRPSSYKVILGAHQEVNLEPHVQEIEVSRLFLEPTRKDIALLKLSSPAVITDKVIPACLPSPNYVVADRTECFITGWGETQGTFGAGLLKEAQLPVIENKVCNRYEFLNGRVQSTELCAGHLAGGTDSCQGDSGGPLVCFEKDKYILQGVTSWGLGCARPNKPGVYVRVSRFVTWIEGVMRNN
Chain of Plasmin (P00747 97-580 partner limits assumed, species assumed): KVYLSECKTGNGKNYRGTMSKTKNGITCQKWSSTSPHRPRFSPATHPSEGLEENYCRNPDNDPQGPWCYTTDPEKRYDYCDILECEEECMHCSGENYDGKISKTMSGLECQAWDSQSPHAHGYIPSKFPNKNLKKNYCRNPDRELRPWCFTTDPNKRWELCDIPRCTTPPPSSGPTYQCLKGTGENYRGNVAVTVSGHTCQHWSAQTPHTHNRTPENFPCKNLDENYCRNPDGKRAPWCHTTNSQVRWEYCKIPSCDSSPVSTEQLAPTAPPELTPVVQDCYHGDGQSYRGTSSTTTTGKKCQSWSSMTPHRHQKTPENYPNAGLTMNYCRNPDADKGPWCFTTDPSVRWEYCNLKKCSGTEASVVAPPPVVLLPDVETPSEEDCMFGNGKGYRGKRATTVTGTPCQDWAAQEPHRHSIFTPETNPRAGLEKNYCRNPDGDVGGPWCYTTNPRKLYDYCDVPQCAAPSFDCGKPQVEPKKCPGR

Broadly, the inhibition is the change of the read-out against control, counted positive when it falls. Turning to `N=C(N)Nc1ccc(CCC(=O)Oc2ccc3cc(C(=N)N)ccc3c2)cc1` [Compound 52], the inhibition at 10 µM on Trypsin is 33%. Moreover, the IC50 was more than 10 µM in the assay with Kallikrein; more than 10 µM on C1r; more than 10 µM on C1s; more than 10 µM on Thrombin; more than 10000 nM at Plasmin. Further, the “Inhibition of complement mediated hemolysis (%)” value (shortened to “Inhibition … (%)”) amounted to 48% in assay [1] (1 × 10^-4), 15% in assay [1] (1 × 10^-5), 6% in assay [1] (1 × 10^-6) and 14% in assay [1] (1 × 10^-7).

`Cc1ccccc1C(=O)Oc1ccc2cc(C(=N)N)ccc2c1` [Compound 2, 6-amidino-2-naphthyl 2-methylbenzoate]: the inhibition at 10 µM on Trypsin came to 38%. For the same compound, the IC50 with Kallikrein was more than 10 µM; at Thrombin, more than 10 µM; on Plasmin, more than 10000 nM.

In the case of `CN(C)c1cccc(C(=O)Oc2ccc3cc(C(=N)N)ccc3c2)c1` [Compound 23, 6-amidino-2-naphthyl 3-dimethylaminobenzoate], the IC50 worked out at 20000 nM on Trypsin, 100 µM in the assay on Kallikrein, 10 µM at Thrombin and 20000 nM on Plasmin.

Regarding `N=C(N)c1ccc2cc(OC(=O)CCCc3ccccc3)ccc2c1` [Compound 54, 6-amidino-2-naphthyl 4-phenylbutyrate], the IC50 at C1r and at C1s was more than 10 µM throughout. Besides, the “Inhibition … (%)” value in assay [1] (1 × 10^-4) was 12%; in assay [1] (1 × 10^-5) it was 10%; in assay [1] (1 × 10^-6), 10%; in assay [1] (1 × 10^-7), 4%.

As to `CN(C)c1ccc(C(=O)Oc2ccc3cc(C(=N)N)ccc3c2)cc1` [Compound 24, 6-amidino-2-naphthyl 4-dimethylaminobenzoate], the IC50 at Trypsin came out at 300 nM; in the assay with Kallikrein, 50 µM; at Thrombin, 60 µM; on Plasmin it was 20000 nM.

`N=C(N)c1ccc2cc(OC(=O)COc3ccc(Cl)cc3Cl)ccc2c1` [Compound 70]: the IC50 at C1r and at C1s was more than 10 µM throughout. In addition, the “Inhibition … (%)” value worked out at 26% in assay [1] (1 × 10^-4), 1% in assay [1] (1 × 10^-5), 0% in assay [1] (1 × 10^-6) and 2% in assay [1] (1 × 10^-7).

For `CC(=O)Nc1ccc(C(=O)Oc2ccc3cc(C(=N)N)ccc3c2)cc1` [Compound 25, 6-amidino-2-naphthyl 4-acetylaminobenzoate], the IC50 with Kallikrein stood at 100 µM; on C1r, 0.7 µM; on C1s it was 0.4 µM; at Thrombin, 60 µM. Also, the “Inhibition … (%)” value was 64% in assay [1] (1 × 10^-4), 26% in assay [1] (1 × 10^-5), 1% in assay [1] (1 × 10^-6) and 0% in assay [1] (1 × 10^-7).

For `COC(=O)c1ccc(C(=O)Oc2ccc3cc(C(=N)N)ccc3c2)cc1` [Compound 14], the IC50 at Trypsin was 300 nM; at C1r, 7 µM; at C1s it was 6 µM; at Thrombin, 3 µM; at Plasmin it was 500 nM. In addition, the “Inhibition … (%)” value turned out to be 61% in assay [1] (1 × 10^-4), 15% in assay [1] (1 × 10^-5), 1% in assay [1] (1 × 10^-6) and 3% in assay [1] (1 × 10^-7).

In the case of `COc1ccc(C=CC(=O)Oc2ccc3cc(C(=N)N)ccc3c2)cc1OC` [Compound 59], the IC50 is 100 nM on Trypsin, 1 µM in the assay with Kallikrein, 6 µM on Thrombin and 600 nM at Plasmin.

`CC(=O)Oc1ccc(CCC(=O)Oc2ccc3cc(C(=N)N)ccc3c2)cc1` [Compound 50]: the “Inhibition … (%)” value in assay [1] (1 × 10^-4) amounted to 49%; in assay [1] (1 × 10^-5) it was 16%; in assay [1] (1 × 10^-6) it was 1%; in assay [1] (1 × 10^-7), 11%.

On to `Cc1ccc(CCC(=O)Oc2ccc3cc(C(=N)N)ccc3c2)cc1` [Compound 48], for which the IC50 at Trypsin was 5000 nM; with Kallikrein, more than 10 µM; on Plasmin, 2000 nM. Also, the inhibition at 10 µM on Thrombin was determined as 43%.

With `N=C(N)c1ccc2cc(OC(=O)Cc3ccc(Cl)cc3)ccc2c1` [Compound 44], the IC50 at C1r and on C1s was more than 10 µM throughout. Further, the “Inhibition … (%)” value in assay [1] (1 × 10^-4) amounted to 89%; in assay [1] (1 × 10^-5), 21%; in assay [1] (1 × 10^-6) it was 0%; in assay [1] (1 × 10^-7) it was 18%.

For the compound `N=C(N)c1ccc2cc(OC(=O)c3ccc(CNC(=O)OCc4ccccc4)cc3)ccc2c1` [Compound 21, 6-amidino-2-naphthyl 4-benzyloxycarbonylaminomethylbenzoate], the IC50 on Trypsin is 600 nM; in the assay on Kallikrein, 10 µM; at C1r it was 0.7 µM; on C1s, 0.5 µM; at Thrombin, more than 10 µM. Besides, the “Inhibition … (%)” value came out at 0% in assay [1] (1 × 10^-4), 66% in assay [1] (1 × 10^-5), 14% in assay [1] (1 × 10^-6) and 0% in assay [1] (1 × 10^-7).

As for `Cc1ccc(C=CC(=O)Oc2ccc3cc(C(=N)N)ccc3c2)cc1` [Compound 58], the IC50 on Trypsin was 2000 nM; with Kallikrein it was more than 10 µM; at Plasmin it was 500 nM. Also, the inhibition at 10 µM on Thrombin was determined as 22%.

In the case of `N=C(N)c1ccc2cc(OC(=O)C=Cc3ccc([N+](=O)[O-])cc3)ccc2c1` [Compound 62, 6-amidino-2-naphthyl 4-nitrocinnamate], the results for the IC50 on Trypsin, with Kallikrein and on Plasmin were 3000 nM, more than 10 µM and 2000 nM, respectively. Moreover, the inhibition at 10 µM at Thrombin was determined as 24%.

For the compound `CC(C)(C)c1ccc(C(=O)Oc2ccc3cc(C(=N)N)ccc3c2)cc1` [Compound 5], the IC50 at Trypsin was 300 nM; with Kallikrein it was 9 µM; at Thrombin it was 3 µM; at Plasmin, 2000 nM.
